Laboratory results from patent US20060004028A1, “Novel PARP inhibitor” (MOCHIDA PHARMACEUTICAL CO., LTD., priority 2002, published 2006).

Structure (SMILES)	melting point
O=C1CCN2c3c1cccc3C(=O)NC2c1cccnc1 (stereo not drawn)	190 to 191.6 °C
COc1ccc(C2NC(=O)c3cccc4c3N2CCC4O)cc1 (stereo not drawn) [Example 2, 7-hydroxy-3-(4-methoxyphenyl)-6,7-dihydro-3H,5H-pyrido[3,2,1-ij]quinazoline-1(2H)-one]	95.7 to 99.6 °C
COc1ccc([C@H]2NC(=O)c3cccc4c3N2CC[C@@H]4N)cc1 [Example 6, (−)-(3S,7S)-7-amino-3-(4-methoxyphenyl)-6,7-dihydro-3H,5H-pyrido[3,2,1-ij]quinazoline-1(2H)-one]	110 to 112.7 °C
COc1ccc(C2NC(=O)c3cccc4c3N2CCC4=O)cc1[N+](=O)[O-] (stereo not drawn) [Example 10, 3-(4-methoxy-3-nitrophenyl)-6,7-dihydro-1H,5H-pyrido[3,2,1-ij]quinazoline-1,7-(2H)-dione]	275.4 to 277.1 °C
COc1ccc(C2NC(=O)c3cccc4c3N2CCC4NCc2ccc(N(C)C)cc2)cc1 (stereo not drawn) [Example 13, 7-(4-N,N-dimethylaminophenyl)methylamino-3-(4-methoxyphenyl)-6,7-dihydro-3H,5H-pyrido[3,2,1-ij]quinazoline-1(2H)-one]	73.2 to 75.6 °C
O=C1CCN2c3c1cccc3C(=O)NC2c1ccccc1 (stereo not drawn) [Example 15, 3-(phenyl)-6,7-dihydro-3H,5H-pyrido[3,2,1-ij]quinazoline-1,7(2H)-dione]	172.1 to 180.4 °C
N#Cc1ccc(C2NC(=O)c3cccc4c3N2CCC4=O)cc1 (stereo not drawn) [Example 16, 3-(4-cyanophenyl)-6,7-dihydro-3H,5H-pyrido[3,2,1-ij]quinazoline-1,7(2H)-dione]	134 to 146.9 °C
Cc1ccc(C2NC(=O)c3cccc4c3N2CCC4=O)cc1 (stereo not drawn) [Example 18, 3-(4-methylphenyl)-6,7-dihydro-3H,5H-pyrido[3,2,1-ij]quinazoline-1,7(2H)-dione]	172.1 to 175.8 °C
O=C1CCN2c3c1cccc3C(=O)NC2c1ccc(F)cc1 (stereo not drawn) [Example 19, 3-(4-fluorophenyl)-6,7-dihydro-3H,5H-pyrido[3,2,1-ij]quinazoline-1,7(2H)-dione]	216 to 224.8 °C
O=C1CCN2c3c1cccc3C(=O)NC2c1ccc(F)c(F)c1 (stereo not drawn) [Example 20, 3-(3,4-difluorophenyl)-6,7-dihydro-3H,5H-pyrido[3,2,1-ij]quinazoline-1,7(2H)-dione]	184 to 189.6 °C
O=C1CCN2c3c1cccc3C(=O)NC2c1ccc(Br)cc1 (stereo not drawn) [Example 21, 3-(4-bromophenyl)-6,7-dihydro-3H,5H-pyrido[3,2,1-ij]quinazoline-1,7(2H)-dione]	206.2 to 214 °C
O=C(O)c1ccc(C2NC(=O)c3cccc4c3N2CCC4=O)cc1 (stereo not drawn) [Example 22, 3-(4-carboxyphenyl)-6,7-dihydro-3H,5H-pyrido[3,2,1-ij]quinazoline-1,7(2H)-dione]	154.3 to 158.9 °C
COc1ccc(C2NC(=O)c3cccc4c3N2CCC4=O)cc1O (stereo not drawn) [Example 28, 3-(3-hydroxy-4-methoxyphenyl)-6,7-dihydro-3H,5H-pyrido[3,2,1-ij]quinazoline-1,7(2H)-dione]	204.7 to 212.2 °C
O=C1CCN2c3c1cccc3C(=O)NC2c1ccc(C(F)(F)F)cc1 (stereo not drawn) [Example 35, 3-(4-trifluoromethylphenyl)-6,7-dihydro-3H,5H-pyrido[3,2,1-ij]quinazoline-1,7(2H)-dione]	203.1 to 208 °C
COc1cc(C2NC(=O)c3cccc4c3N2CCC4=O)ccc1F (stereo not drawn) [Example 36, 3-(4-fluoro-3-methoxyphenyl)-6,7-dihydro-3H,5H-pyrido[3,2,1-ij]quinazoline-1,7(2H)-dione]	171 to 172.9 °C
COc1ccc(C2NC(=O)c3cccc4c3N2CCC4=O)cc1Cl (stereo not drawn) [Example 42, 3-(3-chloro-4-methoxyphenyl)-6,7-dihydro-3H,5H-pyrido[3,2,1-ij]quinazoline-1,7(2H)-dione]	174.5 to 176.9 °C
O=C1CCN2c3c1cccc3C(=O)NC2c1ccc(SC(F)(F)F)cc1 (stereo not drawn) [Example 45, 3-(4-trifluoromethylthiophenyl)-6,7-dihydro-3H,5H-pyrido[3,2,1-ij]quinazoline-1,7(2H)-dione]	178.2 to 180.9 °C
O=C1CCN2c3c1cccc3C(=O)NC2c1ccsc1 (stereo not drawn) [Example 46, 3-(3-thienyl)-6,7-dihydro-3H,5H-pyrido[3,2,1-ij]quinazoline-1,7(2H)-dione]	190.9 to 193.4 °C

Other lines, results leading:

melting point	Structure (SMILES)
137.4 to 144.2 °C	COc1ccc(C2NC(=O)c3cccc4c3N2CCC4=O)cc1 (stereo not drawn) [Example 1, 3-(4-methoxyphenyl)-6,7-dihydro-3H,5H-pyrido[3,2,1-ij]quinazoline-1,7(2H)-dione]
200.8 to 211.9 °C	COc1ccc(C2NC(=O)c3cccc4c3N2CCC4=NO)cc1 (stereo not drawn) [Example 3, 7-hydroxyimino-3-(4-methoxyphenyl)-6,7-dihydro-3H,5H-pyrido[3,2,1-ij]quinazoline-1(2H)]
110 to 112.7 °C	COc1ccc([C@@H]2NC(=O)c3cccc4c3N2CC[C@H]4N)cc1 [Example 7, (+)-(3R,7R)-7-amino-3-(4-methoxyphenyl)-6,7-dihydro-3H,5H-pyrido-[3,2,1-ij]quinazoline-1(2H)-one]
279.9 °C (dec.)	COc1ccc(C2NC(=O)c3cccc4c3N2CCNC4=O)cc1 (stereo not drawn) [Example 14, 3-(4-methoxyphenyl)-5,6-dihydro-3H-pyrimido[5,6,1-jk][1,4]benzdiazepin-1,8(2H,7H)-dione]
164.7 to 166 °C	COc1ccc(C2NC(=O)c3cc(F)cc4c3N2CCC4=O)cc1 (stereo not drawn) [Example 24, 9-fluoro-3-(4-methoxyphenyl)-6,7-dihydro-3H,5H-pyrido[3,2,1-ij]quinazoline-1,7(2H)-dione]
209.4 to 213.1 °C	COc1ccc(C2NC(=O)c3ccc(Cl)c4c3N2CCC4=O)cc1 (stereo not drawn) [Example 25, 8-chloro-3-(4-methoxyphenyl)-6,7-dihydro-3H,5H-pyrido[3,2,1-ij]quinazoline-1,7(2H)-dione]
174.3 to 178.2 °C	CN(C)CCCOc1ccc(C2NC(=O)c3cccc4c3N2CCC4=O)cc1 (stereo not drawn) [Example 26, 3-(4-(3-N,N-dimethylaminopropoxy)phenyl)-6,7-dihydro-3H,5H-pyrido[3,2,1-ij]quinazoline-1,7(2H)-dione]
212.8 to 215.7 °C	COc1ccc(C2NC(=O)c3cccc4c3N2CCC4=O)cc1Br (stereo not drawn) [Example 27, 3-(3-bromo-4-methoxyphenyl)-6,7-dihydro-3H,5H-pyrido[3,2,1-ij]quinazoline-1,7(2H)-dione]
175.8 to 177.1 °C	CC(C)Oc1ccc(C2NC(=O)c3cccc4c3N2CCC4=O)cc1 (stereo not drawn) [Example 37, 3-(4-isopropoxyphenyl)-6,7-dihydro-3H,5H-pyrido[3,2,1-ij]quinazoline-1,7(2H)-dione]
81.4 to 82 °C	COc1ccc(Cc2nc(=O)c3cccc4c3n2CCC4=O)cc1 [Example 41, 3-(4-methoxyphenyl)methyl-6,7-dihydro-5H-pyrido[3,2,1-ij]quinazoline-1,7-dione]
214.7 to 219.5 °C	COc1ccccc1C1NC(=O)c2cccc3c2N1CCC3=O (stereo not drawn) [Example 43, 3-(2-methoxyphenyl)-6,7-dihydro-3H,5H-pyrido[3,2,1-ij]quinazoline-1,7(2H)-dione]
126.5 to 142.5 °C	COc1cccc(C2NC(=O)c3cccc4c3N2CCC4=O)c1 (stereo not drawn) [Example 44, 3-(3-methoxyphenyl)-6,7-dihydro-3H,5H-pyrido[3,2,1-ij]quinazoline-1,7(2H)-dione]
